{"source": "patent US10729659B2", "about": "“Nanogel-mediated drug delivery” (The Cleveland Clinic Foundation, priority 2012, dated 2020)", "key": {"[1]": {"system": "MDA-MB 231 cells", "assay": "Physical characterization of exosomes from DAC treated cells", "assay_type": "cell-based, human", "conditions": "exosomes from cells treated with DAC 0.5 μM, 24 h", "procedure": "Exosome isolation protocol: MDA-MB 231 cells were grown in DMEM supplemented with 10% fetal bovine serum (FBS), and 1% antibiotics. Prior to use in cell culture; the cell culture medium was depleted of endogenous exosomes present in FBS. Exosomes depleted media were prepared by 16 h of ultracentrifugation of cell culture medium supplemented with 50% FBS at 100, 000×g and filtered through 0.2 μm filter. Through out this process sterile conditions were maintained.\nTo isolate the exosomes from cells treated with DAC, cells were cultured in 10 cell culture dishes (150×25 mm), When the cells were at 70% confluency, the cells were washed with 1×PBS, re-fed with endogenous exosomes depleted media containing DAC (0.5 μM) and incubated for 24 h. Because of small production of exosomes from cultured cells, culture media from all the DAC treated plates were pooled for exosome isolation. All the exosome isolation procedures were done at 4° C. Culture supernatants were first centrifuged at 300×g for 10 min to pellet the cells. To remove the dead cells, supernatant was centrifuged at 2,000×g for 15 min (Sorvall Legend RTcentrifuge, Thermo Electron Corp. Waltham, Mass.). Supernatant was pipetted off and transferred to pre-cooled polycarbonate tubes appropriate for 50.1Ti fixed angle ultracentrifugation rotor (Beckman Coulter Inc., Fullerton, Calif., USA) and centrifuged at 10,000×g for 30 min to remove cell debris. Pellet was discarded and supernatant was aliquoted to several ultracentrifuge tubes and centrifuged at 110,000×g for 70 min to pellet exosomes. Supernatant was discarded. The pellet in each tube was re-suspended in 1 mL PBS and pooled in to single ultracentrifuge tube and centrifuged at 110,000×g for 70 min. […]\nFive micro-liter of PFA fixed exosome suspension was dropped on 200 mesh formvar—carbon coated EM grid (grid size: 97 μm) (TEDPELLA, Redding, Calif., USA) and exosomes were allowed to adsorb to the grids by drying the suspension at room temperature for 20-30 min. […] From TEM images sizes of exosomes were measured using Image J software."}, "[2]": {"system": "P-gp", "assay": "Western blot of P-gp expression in MCF-7/Adr cells", "assay_type": "cell-based, human", "source_text": "Proteins ([…]) from DAC treated or untreated cell lysates in RIPA buffer were probed for mouse monoclonal P-glycoprotein (calbiochem) and mouse anti-actin (Sigma-Aldrich, St. Louis, Mo.). Blotting and detection of the indicated proteins were done as per standard western blot protocol."}, "[3]": {"system": "MCF-7/Adr cells", "assay": "Microarray gene expression analysis", "assay_type": "cell-based, human", "conditions": "decitabine vs untreated MCF-7/Adr", "procedure": "Microarray analysis was performed using the standard protocol provided by IlluminaCorporation (San Diego, Calif.). […] 20 μL of nuclease free water containing total RNA at the concentration of 100 ng/μL was stored at −80° C. Approximately […] of total RNA was subjected to gene expression array study using Illuminahuman 6v2 chip. The array-hybridization and scanning of array images were performed at the Cleveland Clinic Genomics Core. The microarray scanned image and intensity files were imported into Illumina Bead Studio Analysis software version 3.2.6 (Illumina Inc.). Error models were applied and ratios were built for each treatment array versus its respective vehicle control. For qPCR analysis, RNA isolated from treated and untreated cells were converted into cDNA using Mo-MLV reverse transcriptase (Promega Inc., USA) according to manufacturers' instructions. Taqman expression primers (Applied Biosystems Inc., USA) and ABI PRISM Sequence Detection Instrument 7700 (Applied Biosystems Inc., USA) were used for real-time reverse transcription-PCR (RT-PCR). Fold change in target genes was calculated about the human glyceraldehyde 3-phosphate dehydrogenase (GAPDH)."}, "[4]": {"assay": "DAC stability in liver extract", "assay_type": "in vitro ADME", "conditions": "15% w/v liver extract of athymic nude mice", "procedure": "Freshly prepared DAC solution (50 μg/mL) or DAC loaded nanogel (equivalent drug concentration) was added in cell culture media (DMEM supplemented with 15% FBS and 1% penicillin-streptomycin), and incubated in cell culture incubator at 37° C. in a 5% CO2. Samples were incubated as 2 mL aliquots at 37° C., collected at various time points and lyophilized for 48 h at −48° C., 3.5 Pa, using FreeZone 4.5 (Labconco Corp., Kansas City, Mo.). DAC was extracted from lyophilized samples by adding 3 mL of methanol and kept on an orbital rotating shaker at 100 rpm in cold room overnight. 1 mL of methanolic extract was centrifuged at 14,000 rpm for 15 min at 4° C.; supernatant was collected and analyzed by HPLC. Identical protocol was followed for analyzing the stability of DAC in Mili Q water containing 15% heat inactivated or normal serum. Stability of DAC was also analyzed in 15% w/v liver extract of athymic nude mice using the indicated protocol."}}, "data": [{"molecule": "Nc1ncn([C@H]2C[C@H](O)[C@@H](CO)O2)c(=O)n1", "note": "[DAC, 5-aza-2′-deoxycytidine]", "values": [{"measurement": "Hydrodynamic diameter of exosomes", "setting": "[1]", "value": 495, "unit": "nm"}, {"measurement": "PI of exosomes", "setting": "[1]", "value": 0.61}, {"measurement": "Exosome size by transmission electron micrograph", "setting": "[1]; in nm (unit assumed)", "value": "97.2±8.0"}, {"measurement": "Decrease in P-gp protein expression vs untreated cells", "setting": "[2]; day 1", "value": 45, "unit": "%"}, {"measurement": "P-gp expression", "setting": "[2]; day 3", "value": "returned to normal levels"}, {"measurement": "Fold Change 48 h", "setting": "[3]; gene CDKN1A (p21, Cip1)", "value": 3.6, "unit": "fold"}, {"measurement": "Fold Change 48 h", "setting": "[3]; gene CST6", "value": 52.8, "unit": "fold"}, {"measurement": "Fold Change 48 h", "setting": "[3]; gene DPEP3", "value": "−87.8", "unit": "fold"}, {"measurement": "Fold Change 48 h", "setting": "[3]; gene DPPA2", "value": "−11.2", "unit": "fold"}, {"measurement": "Fold Change 48 h", "setting": "[3]; gene GAGE2", "value": 1754.4, "unit": "fold"}, {"measurement": "Fold Change 48 h", "setting": "[3]; gene GAGE5", "value": 1358.9, "unit": "fold"}, {"measurement": "Fold Change 48 h", "setting": "[3]; gene GAGE6", "value": 813.8, "unit": "fold"}, {"measurement": "Fold Change 48 h", "setting": "[3]; gene GAGE7B", "value": 907.8, "unit": "fold"}, {"measurement": "Fold Change 48 h", "setting": "[3]; gene GAGE8", "value": 411.0, "unit": "fold"}, {"measurement": "Fold Change 48 h", "setting": "[3]; gene IL23A (p19)", "value": 3.02, "unit": "fold"}, {"measurement": "Fold Change 48 h", "setting": "[3]; gene MAGEA4", "value": 4.7, "unit": "fold"}, {"measurement": "Fold Change 48 h", "setting": "[3]; gene MMP9", "value": "−215.1", "unit": "fold"}, {"measurement": "Fold Change 48 h", "setting": "[3]; gene PAGE 4", "value": 11.6, "unit": "fold"}, {"measurement": "Fold Change 48 h", "setting": "[3]; gene PAGE5", "value": 25.4, "unit": "fold"}, {"measurement": "Fold Change 48 h", "setting": "[3]; gene PAK3", "value": 2.7, "unit": "fold"}, {"measurement": "Fold Change 48 h", "setting": "[3]; gene PNMA5", "value": "−19.8", "unit": "fold"}, {"measurement": "Fold Change 48 h", "setting": "[3]; gene PYCARD", "value": 23.6, "unit": "fold"}, {"measurement": "Fold Change 48 h", "setting": "[3]; gene RASD1", "value": 35.6, "unit": "fold"}, {"measurement": "Fold Change 48 h", "setting": "[3]; gene SOCSI", "value": 28.2, "unit": "fold"}, {"measurement": "Fold Change 48 h", "setting": "[3]; gene SOX15", "value": 10.2, "unit": "fold"}, {"measurement": "Fold Change 48 h", "setting": "[3]; gene STK31", "value": 1663.3, "unit": "fold"}, {"measurement": "Fold Change 48 h", "setting": "[3]; gene TFF2", "value": "−16.8", "unit": "fold"}, {"measurement": "Fold Change 48 h", "setting": "[3]; gene THY1", "value": 103.1, "unit": "fold"}, {"measurement": "Fold Change 48 h", "setting": "[3]; gene TMEM101", "value": 33.7, "unit": "fold"}, {"measurement": "Fold Change 48 h", "setting": "[3]; gene ZFP42", "value": "−22.5", "unit": "fold"}, {"measurement": "Complete degradation of DAC, time post incubation", "setting": "[4]", "value": 60, "unit": "min"}]}]}
